Results reported in patent US12692261B2, “Substituted heterocyclic compounds and therapeutic uses thereof” (Bayer Aktiengesellschaft, priority 2020, dated 2026).

Experiments:
[1] = target: T1, full-length human CSNK1A1 (Homo sapiens, UniProt P48729); experiment: CSNK1A1 Assay 2 (ADP-Glo, 1 μM ATP, substrate biotin-Ahx-KRRRAL-pS-VASLPGL); type: biochemical; settings: Table 3, read-out: CSNK1A1 Assay 2 IC50 [mol/l] (median)
T1 construct: N-terminal Glutathion-S-Transferase (GST) and full-length human CSNK1A1; purchased Life Technologies PV4174; host or cells: baculovirus infected insect cells
How it was run: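 Activity read as ADP generated (ADP-Glo luciferase luminescence, 1 h detection steps at 22 °C). Enzyme was insect-cell-expressed GST–full-length human CSNK1A1, compound-preincubated 15 min before reaction with phosphopeptide substrate and 1 μM ATP in 50 mM HEPES pH 7.5, 10 mM MgCl2.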

[2] = target: T1, full-length human CSNK1A1; experiment: CSNK1A1 High ATP Assay (ADP-Glo, 1 mM ATP); type: biochemical; settings: Table 3, read-out: CSNK1A1 high ATP assay IC50 [mol/l] (median);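 also: 30 min kinase reaction at 22 °C with 100 µM peptide substrate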
How it was run: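 Kinase activity taken as ADP generated, quantified by ADP-Glo luminescence after 1 h ATP depletion and 1 h detection at 22 °C. Enzyme is GST–full-length human CSNK1A1 (insect cell-expressed), pre-bound to compound for 15 min, with phosphopeptide substrate and 1 mM ATP.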

T1 sequence (P48729 whole entry): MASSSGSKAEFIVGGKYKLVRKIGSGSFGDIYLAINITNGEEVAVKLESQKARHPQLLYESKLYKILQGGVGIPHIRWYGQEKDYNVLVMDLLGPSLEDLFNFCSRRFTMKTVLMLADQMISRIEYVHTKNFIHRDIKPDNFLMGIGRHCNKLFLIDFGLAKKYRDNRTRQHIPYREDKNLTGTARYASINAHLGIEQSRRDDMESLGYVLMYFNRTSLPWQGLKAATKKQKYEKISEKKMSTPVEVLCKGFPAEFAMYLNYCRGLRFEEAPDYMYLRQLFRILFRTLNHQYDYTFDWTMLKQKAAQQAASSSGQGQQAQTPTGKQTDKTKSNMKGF

| SMILES | IC50 [1] | IC50 [2] |
| --- | --- | --- |
| COc1cnc2c(-c3ccccn3)c(-c3ccnc(NC(=O)C(CC(F)F)c4ccc(F)cc4)c3)[nH]c2c1 (stereo not drawn) [Example 81, 4,4-difluoro-2-(4-fluorophenyl)-N-{4-[6-methoxy-3-(pyridin-2-yl)-1H-pyrrolo[3,2-b]pyridin-2-yl]pyridin-2-yl}butanamide] | 4.02 nM | 4.02 nM |
| Cc1ccnc2c(-c3ccccn3)c(-c3ccnc(NC(=O)C(CC(F)F)c4ccc(F)cc4)c3)[nH]c12 (stereo not drawn) [Example 84, 4,4-difluoro-2-(4-fluorophenyl)-N-{4-[7-methyl-3-(pyridin-2-yl)-1H-pyrrolo[3,2-b]pyridin-2-yl]pyridin-2-yl}butanamide] | 4.77 nM | 4.77 nM |
| Cc1cnc2c(-c3ccccn3)c(-c3ccnc(NC(=O)C(CC(F)F)c4ccc(F)cc4)c3)[nH]c2n1 (stereo not drawn) [Example 85, 4,4-difluoro-2-(4-fluorophenyl)-N-{4-[3-methyl-7-(pyridin-2-yl)-5H-pyrrolo[2,3-b]pyrazin-6-yl]pyridin-2-yl}butanamide] | 4.21 nM | 4.21 nM |
